{
  "source": "paper PMC11785791",
  "about": "“Cryo-EM structure of the calcium-sensing receptor complexed with the kokumi substance γ-glutamyl-valyl-glycine” (Scientific Reports, 2025)",
  "key": {"human CaSR (wild type)": {"biological_target": "T1, human CaSR (wild type) (Homo sapiens, UniProt P41180)", "T1 construct": "expressed in transfected cells; host or cells: PEAKrapid cells (ATCC), pcDNA 3.1, transient transfection", "T1 sequence (P41180 20-1078)": "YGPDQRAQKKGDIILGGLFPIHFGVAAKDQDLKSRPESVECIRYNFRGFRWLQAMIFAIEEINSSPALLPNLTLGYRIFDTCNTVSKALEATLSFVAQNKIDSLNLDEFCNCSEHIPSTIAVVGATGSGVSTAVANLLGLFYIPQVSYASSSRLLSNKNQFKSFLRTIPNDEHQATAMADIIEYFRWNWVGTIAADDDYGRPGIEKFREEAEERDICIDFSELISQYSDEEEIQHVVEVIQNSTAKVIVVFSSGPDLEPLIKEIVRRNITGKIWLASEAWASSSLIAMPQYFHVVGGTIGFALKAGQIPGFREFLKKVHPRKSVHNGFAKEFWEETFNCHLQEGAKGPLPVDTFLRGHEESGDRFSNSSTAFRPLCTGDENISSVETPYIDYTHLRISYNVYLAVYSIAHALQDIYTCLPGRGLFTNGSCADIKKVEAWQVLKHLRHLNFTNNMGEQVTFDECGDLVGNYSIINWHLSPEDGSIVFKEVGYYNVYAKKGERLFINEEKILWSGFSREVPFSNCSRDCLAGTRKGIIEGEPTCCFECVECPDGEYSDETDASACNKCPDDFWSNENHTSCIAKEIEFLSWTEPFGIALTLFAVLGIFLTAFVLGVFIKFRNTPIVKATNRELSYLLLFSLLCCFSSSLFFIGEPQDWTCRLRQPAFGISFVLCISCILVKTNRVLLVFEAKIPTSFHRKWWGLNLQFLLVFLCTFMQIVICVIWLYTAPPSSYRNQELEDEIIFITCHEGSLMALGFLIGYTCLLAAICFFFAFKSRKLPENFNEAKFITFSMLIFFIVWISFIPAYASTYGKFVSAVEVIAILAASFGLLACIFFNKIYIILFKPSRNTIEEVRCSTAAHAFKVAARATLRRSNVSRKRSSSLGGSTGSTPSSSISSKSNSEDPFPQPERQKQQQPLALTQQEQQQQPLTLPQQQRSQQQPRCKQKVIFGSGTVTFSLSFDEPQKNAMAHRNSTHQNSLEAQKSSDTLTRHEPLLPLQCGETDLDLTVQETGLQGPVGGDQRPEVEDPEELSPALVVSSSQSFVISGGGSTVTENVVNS", "assay": "Calcium mobilization assay, wild-type CaSR in PEAKrapid cells", "assay_type": "cell-based", "details": "WT CaSR; for EC50: PEAKrapid cells, 1 mM CaCl2 in assay buffer, mean ± s.e.m., n = 3; for Response in calcium mobilization assay: in words", "description": "The CaSR receptor responsiveness was assessed by using PEAK^rapid cells (ATCC, Manassas, VA, USA) transiently transfected with the receptor DNA by the method reported by Kitajima et al.[6]. Briefly, human CaSR or its mutant cDNA with a signal sequence (MAFYSCCWVLLALTWHTSA) followed by FLAG-tag (DYKDDDDK) were inserted into pcDNA 3.1 expression vectors in Opti-MEM I medium (Thermo Fisher Scientific), mixed with FuGENE 6 (Roche), and poured onto PEAK^rapid cells grown at a submaximal concentration. After culturing for 24 h in 96-well plates, the cells were incubated with 5 µM Calcium-5 solution (Calcium-5 assay kit, Molecular Devices) for 45–60 min, and measurements were performed using a plate reader (FDSS/µCELL, Hamamatsu Photonics, Shizuoka, Japan) and its associated software. The activation of CaSR expressed in cells increases the intracellular Ca^2+ concentration, which is measured using a Ca^2+-sensitive dye. The binding of Ca^2+ to the Ca^2+-sensitive dye increases dye fluorescence, with excitation at 485 nm and emission at 525 nm. Test compounds were dissolved and administered in the assay buffer (146 mM NaCl, 1 mM MgSO4, 20 mM HEPES, 1 mM CaCl2, 2.5 mM probenecid, and 1.39 mM glucose, pH 7.4). Transiently transfected cells were challenged with compounds and compared with the vehicle alone and/or mock-transfected cells. The concentration dependence of the fluorescence intensity (influx of Ca^2+) was analyzed using the plate reader at 1 s intervals for 180 s. For the dose–response curve calculations, peak fluorescence responses after the addition of compounds were corrected for, normalized to the background fluorescence (ΔF/F = –F − F0)/F0), and baseline noise was subtracted. Dose–response curves were calculated by non-linear regression using GraphPad PRISM 8.0."}, "CaSR": {"system": "CaSR", "set-up": "method as in PMID 19892707, PMID 27477658", "details": "screening of dipeptides and tripeptides, previous work; cited from earlier work"}},
  "note": "*1 amine or outer side, *2 acyl side, *3 side chain or, on linkers, in order; H or OH if unused. Where a SMILES comes first, the peptide text is derived from it. γGlu = O=C(O)[CH](CCC(=O)[*:2])N[*:1]",
  "data": [
    {"smiles": "[Ca+2].[Cl-].[Cl-]", "note": "[CaCl2]", "values": [
      {"measurement": "EC50", "setting": "human CaSR (wild type)", "result": "190 ± 400", "unit": "µM"}
    ]},
    {"smiles": "N[C@@H](Cc1ccc(O)cc1)C(=O)O", "note": "[L-Tyr, L-tyrosine]", "values": [
      {"measurement": "EC50", "setting": "human CaSR (wild type)", "result": "3900 ± 1100", "unit": "µM"},
      {"measurement": "Response in calcium mobilization assay", "setting": "human CaSR (wild type)", "result": "weak response"}
    ]},
    {"smiles": "CC(C)[C@H](NC(=O)CC[C@H](N)C(=O)O)C(=O)O", "note": "[γ-EV, γ-glutamyl-valine]", "values": [
      {"measurement": "EC50", "setting": "human CaSR (wild type)", "result": "10.71 ± 0.1", "unit": "µM"},
      {"measurement": "Response in calcium mobilization assay", "setting": "human CaSR (wild type)", "result": "weak response"}
    ]},
    {"smiles": "CC(C)C(NC(=O)CCC(N)C(=O)O)C(=O)NCC(=O)O", "note": "(stereo not drawn) [γ-EVG, γ-glutamyl-valyl-glycine] (γGlu-Val-Gly-OH; configuration not given here)", "values": [
      {"measurement": "CaSR activation potency", "setting": "CaSR", "result": "most potent activity among those tested"},
      {"measurement": "EC50", "setting": "human CaSR (wild type)", "result": "0.18 ± 0.1", "unit": "µM"}
    ]}
  ]
}
